Experimental findings from patent US12173088B2, “Anti-microbial peptides” (priority 2018, dated 2024) are described below.

In brackets after ≈: the same amount, converted by molar mass. Like-named read-outs stand apart in the source and are kept apart here. A value given as a limit tells only on which side of the number the result lay.

Experiment [1] deals with S. aureus USA300 biofilms. The note with it: 48-hour biofilms.
Protocol: The antibiofilm activity of the peptide against 24 hours established biofilms was evaluated. In short, S. aureus USA300 (10^5 CFU/mL) was made from exponential phase bacteria in TSB media and 200 μL was distributed to each well of the microtiter plate (Corning Costar Cat No. 3595). The plates were incubated at 37° C. for 24 hours to form biofilm. Culture treated with water served as a positive control while media without bacterial inoculation served as the negative control. Media was then pipetted out and the attached biofilms were washed with 1×PBS to remove the planktonic bacteria. Each well of the plate was then filled with 20 μL of 10× peptide solution and 180 μL of fresh TSB media and the plates were further incubated at 37° C. for 24 hours. Media was then pipetted out and the wells were washed with 1×PBS to remove planktonic cells. Live cells in the biofilms were then quantitated using XTT [2,3-bis(2-methyloxy-4-nitro-5-sulfophenyl)-2H-tertazolium-5-carboxanilide] assay by following the manufacturer's instructions with modifications. 180 μL of fresh TSB and 20 μL of XTT solution was added to each well and the plates were again incubated at 37° C. for 2 hours. Absorbance at 450 nm (only media with XTT containing wells served as the blank) was obtained using a ChroMate® microtiter plate reader. […]
The test system of a further experiment is E. faecium V286-17 (VRE). The experiment is described as follows: microbe, parasite or virus in culture. The format is cell-based, Enterococcus faecium. The note with it: Enterococcus faecium, VRE, read-out: MIC E. faecium V286-17 (VRE). The essentials:
(§1)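 Peptides were serially diluted two-fold against bacteria grown in tryptic soy broth to log phase (OD600 ≈0.5), then seeded at OD600 0.001. Plates were held overnight at 37° C and read at 630 nm. USA300 was also tested at pH 6.8, 7.2 and 8.0, with 150 mM NaCl or 5-10% serum, plasma or peritoneal fluid.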

Experiment [2] deals with S. aureus USA300. It counts as cell-based, Staphylococcus aureus. The procedure: The experiment was carried out similar to the MIC determination with a few modifications (Ge, et al. (1999) Antimicrob. Agents Chemother., 43:782-788; Ling, et al. (2015) Nature 520:388). In short, an exponential phase S. aureus USA300 culture (i.e., optical density at 600 nm≈0.5) was diluted and partitioned into a 96-well polystyrene microplate with ˜10^5 colony forming units (CFU) per well (90 μL aliquots). After treatment with 10 μL of peptide or antibiotics solutions at various concentrations, microplates were incubated at 37° C. overnight and read on a ChroMate® 4300 Microplate Reader at 630 nm (GMI). […] Plots were made to determine the increase in the fold change (MIC on given passage/MIC recorded in first day of passage).
This experiment was performed similar to the MIC determination with a few modifications. […] After treatment with 10 μL of peptide or antibiotics solutions at various concentrations, microplates were incubated at 37° C. overnight and read on a ChroMate® Microplate Reader at 630 nm (GMI). […] The increase in the fold change (MIC on given passage/MIC recorded in first day of passage) used to determine the degree of drug resistance.

The next experiment deals with S. aureus M838-17 (MRSA). In words: microbe, parasite or virus in culture. It counts as cell-based, Staphylococcus aureus. The note with it: Staphylococcus aureus, MRSA; Table 7; by weight; read-out: MIC S. aureus M838-17 (MRSA). The essentials:
as §1

Experiment [3] relates to clinical strains of methicillin-resistant and susceptible S. aureus. In words: microbe, parasite or virus in culture. The note with it: for MIC: Staphylococcus aureus. The protocol: The antibacterial activity of peptides was evaluated using a standard broth microdilution protocol with minor modifications (Mishra, et al. (2017) Acta Biomater., 49:316-328). In brief, logarithmic phase bacterial cultures (i.e., optical density at 600 nm≈0.5) were diluted to 0.001 OD and aliquoted 90 μL per well into a 96-well polystyrene microplate. Added 10 μL peptides per well with various concentrations, plates were incubated at 37° C., overnight. Post incubation the plates are read at 630 nm using a ChroMate® Microplate Reader (GMI). […] To study the influence of medium conditions on the antimicrobial activity of peptides against S. aureus USA300 at different pHs (6.8, 7.2, and 8.0), 150 mM sodium chloride (NaCl), 5-10% of human serum, mouse plasma, and peritoneal fluid were included into the assays.

The test system of another experiment is K. pneumoniae E406-17. In words: microbe, parasite or virus in culture. The note with it: Klebsiella pneumoniae, E40617; Table 14; read-out: MIC K. pneumoniae E406-17. The format is cell-based, Klebsiella pneumoniae. The gist of the method: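 Broth microdilution in tryptic soy broth: log-phase cultures (OD600 ≈0.5) diluted to OD600 0.001, given two-fold peptide dilutions, incubated overnight at 37° C. Growth read at 630 nm.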

A further experiment relates to A. baumannii B26-16. In words: microbe, parasite or virus in culture. The format is cell-based, Acinetobacter baumannii. The note with it: Acinetobacter baumannii, B2616; Table 14; read-out: MIC A. baumannii B26-16. The essentials: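 Broth microdilution in tryptic soy broth: log-phase cultures diluted to 0.001 OD600 and exposed to peptide dilutions overnight at 37 °C, growth read at 630 nm. For S. aureus USA300, medium effects tested at pH 6.8, 7.2 and 8.0, with 150 mM NaCl, or with 5–10% human serum, mouse plasma or peritoneal fluid.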

The next experiment concerns P. aeruginosa E411-17. The experiment is described as follows: microbe, parasite or virus in culture. It counts as cell-based, Pseudomonas aeruginosa. The note with it: Pseudomonas aeruginosa, E41117; Table 14; read-out: MIC P. aeruginosa E411-17. The essentials: as §1
Experiment [4] has as its system K. pneumoniae E406-17 biofilms. In words: Biofilm disruption and attachment. It counts as cell-based, Klebsiella pneumoniae. The protocol:
Briefly, S. aureus USA300 and K. pneumoniae E406-17 (10^5 CFU/mL) were prepared from exponentially phase. Each well of the microtiter plate (Corning Costar® Cat No. 3595) was aliquoted with 180 μL of inoculum and the plates were incubated at 37° C. for 48 hours to form biofilm. Culture treated with water served as a positive control while media without bacterial inoculation served as the negative control. Media was aspirated post incubation and the attached biofilms were washed with 1×PBS to remove the planktonic bacteria. Each well was aliquoted with 20 μL of 10× peptide solution and 180 μL of fresh TSB media, plates were further incubated at 37° C. for 24 hours. Media aspirated from the wells and washed with 1×PBS to remove planktonic cells. Live cells in the biofilms were quantitated using XTT [2,3-bis(2-methyloxy-4-nitro-5-sulfophenyl)-2H-tertazolium-5-carboxanilide] assay by following the manufacturer's instructions with modifications. 180 μL of fresh TSB and 20 μL of XTT solution was added to each well and the plates further incubated at 37° C. for 2 hours. Absorbance was read at 450 nm (only media with XTT containing wells served as the blank) using a Chromate® microtiter plate reader. Percentage biofilm growth for the peptide was plotted by assuming 100% biofilm growth in bacterial control alone. The data is mean±SD, the significance at […]. […]

In the next experiment the test system is E. coli E423-17. The experiment is described as follows: microbe, parasite or virus in culture. It counts as cell-based, Escherichia coli. The note with it: Escherichia coli, E42317; Table 14; read-out: MIC E. coli E423-17. The gist of the method:
as §1

For experiment [5], the system named is S. aureus USA300. The experiment is described as follows: microbe, parasite or virus in culture. The format is cell-based, Staphylococcus aureus. The note with it: Staphylococcus aureus, MRSA / USA300; Table 14; read-out: MIC S. aureus USA300 (MRSA). The gist of the method:
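Broth microdilution: log-phase cultures in tryptic soy broth diluted to OD600 0.001, exposed to two-fold diluted peptides at 37° C overnight, growth read at 630 nm. Medium effects on S. aureus USA300 tested with up to 200 mM NaCl, 2 mM CaCl2, 5-10% human serum, mouse plasma, fluids or tissue homogenate supernatants.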

Take `CCOc1ccc2ccccc2c1C(=O)N[C@@H]1C(=O)N2[C@@H]1SC(C)(C)[C@@H]2C(=O)O` [Nafcillin]: in [1], the “Activity against 48-hour biofilms” value is listed as “did not”. Further, the MIC with E. faecium V286-17 (VRE) (Table 7) was greater than 12.5 µM; with S. aureus M838-17 (MRSA), 0.78 to 1.56 µM (≈ 0.323 to 0.647 µg/mL); in experiment [3] (MSSA, strain B243-16 MSSA), less than 0.25 µM; in experiment [3] (MSSA, strain B254-16 MSSA), less than 0.25 µM; in [3] (MSSA, strain B255-16 MSSA), less than 0.25 µM; in experiment [3] (MSSA, strain B262-16 MSSA), 0.5 µM (≈ 0.207 µg/mL). Further, the MIC in [3] (MSSA, strain B269-16 MSSA) is 0.5 µM (≈ 0.207 µg/mL); in experiment [3] (NEWMAN, strain Newman) it was 0.25 µM (≈ 0.104 µg/mL); in experiment [3] (USA200, strain USA200) it was greater than 8 µM; in [3] (USA300, strain USA300) it was 0.5 µM (≈ 0.207 µg/mL); in [3] (USA400, strain USA400) it was 1 µM (≈ 0.414 µg/mL); in experiment [3] (strain M106-16) it was 2 µM (≈ 0.829 µg/mL). Further, the MIC worked out at 1 µM (≈ 0.414 µg/mL) in experiment [3] (strain M108-16); 1 µM (≈ 0.414 µg/mL) in [3] (strain M109-16); 8 µM (≈ 3.32 µg/mL) in [3] (strain M111-16); 0.5 µM (≈ 0.207 µg/mL) in [3] (strain M112-16); 0.5 µM (≈ 0.207 µg/mL) in [3] (strain M113-16); 0.5 µM (≈ 0.207 µg/mL) in experiment [3] (strain M114-16). The MIC was less than 0.25 µM in experiment [3] (strain M116-16); 0.5 µM (≈ 0.207 µg/mL) in experiment [3] (strain M117-16); 0.5 µM (≈ 0.207 µg/mL) in experiment [3] (strain M118-16); 1 µM (≈ 0.414 µg/mL) in experiment [3] (strain M119-16); 2 µM (≈ 0.829 µg/mL) in [3] (strain M120-16); 1 µM (≈ 0.414 µg/mL) in experiment [3] (strain M121-16). The MIC turned out to be 1 µM (≈ 0.414 µg/mL) in [3] (strain M122-16); 4 µM (≈ 1.66 µg/mL) in [3] (strain M123-16); 1 µM (≈ 0.414 µg/mL) in experiment [3] (strain M126-16); 2 µM (≈ 0.829 µg/mL) in experiment [3] (strain M127-16); 8 µM (≈ 3.32 µg/mL) in experiment [3] (strain M128-16); 1 µM (≈ 0.414 µg/mL) in [3] (strain M129-16). The MIC in experiment [3] (strain M130-16) is 1 µM (≈ 0.414 µg/mL); in experiment [3] (strain UAMS-1) it was 4 µM (≈ 1.66 µg/mL); in [3] (strain mu50), greater than 8 µM. Besides, in the experiment with S. aureus USA300 [2] (after 16 passages, sub-MIC level), the MIC increase is on record as 1000 fold. The “Resistance development” value with S. aureus USA300 [2] (multiple passage experiment) is on record as “developed resistance”. The “Inhibition of Mu50 and USA200 strains” value in [3] (nafcillin at 8 μM) was “did not inhibit”.
Turning to `C[C@@H](O)[C@H]1C(=O)N2C(C(=O)O)=C(S[C@@H]3CN[C@H](CNS(N)(=O)=O)C3)[C@H](C)[C@H]12` [Doripenem, reference compound], the MIC in the experiment with K. pneumoniae E406-17 is 0.5 µM (≈ 0.21 µg/mL); in the experiment with E. faecium V286-17 (VRE) (Table 14), greater than 8 µM; with A. baumannii B26-16, greater than 8 µM; in the experiment with P. aeruginosa E411-17, 2 µM (≈ 0.841 µg/mL); in the experiment with E. coli E423-17, 1 µM (≈ 0.421 µg/mL); in the experiment with S. aureus USA300 [5], 0.25 µM (≈ 0.105 µg/mL). The “Adhesion/attachment of K. pneumoniae” value in experiment [4] is recorded as “showed no effect”. Further, in experiment [4] (48-hour biofilms), the “Effect on 48-hour preformed biofilms” value is given as “showed no effect”.
